# Columns and labels:
# [1] = Cation titration followed by absorbance or fluorescence excitation spectra: Ca²⁺ binding; conditions: 0.1 M tetramethylammonium chloride, 1-5 mM tris(hydroxymethyl)aminomethane, high pH, read-out: Dissociation constants (Kd) in mM for Ca²⁺
# Procedure: • Footnote a: For molecular structures, see Fig. 1. • Footnote b: Except where otherwise noted, these dissociation constants were measured with the chelator dissolved in 0.1 M tetramethylammonium chloride, at a pH held high enough with 1-5 mM tris(hydroxymethyl)aminomethane for protonation to be insignificant. The absorbance spectrum, or the fluorescence excitation spectrum for those compounds (2GG, 2NN, 2OO, 2PP, 3NN) with acronyms was measured as a function of the concentration of cation added as a solid or concentrated aqueous solution of the halide salt. No correction has been made for the changing ionic strength of the solution, which started from 0.1 M and increased, but the absorbances and fluorescence amplitudes were applied for dilution of the dye and any slight quenching due to high concentrations of Cl⁻. • Footnote c: These protonation constants were determined in 0.1 M tetramethylammonium chloride, 10 mM tris(hydroxymethyl)aminomethane, titrated with 5 M H₃PO₄ to successively lower pH values measured with a Radiometer PHM84 meter. […] The first number is the wavelength in nanometers, followed in parentheses by 10⁻³ x the corresponding extinction coefficient, M⁻¹cm⁻¹. […] Emission maxima are not corrected for the spectral sensitivity of the emission detection. Quantum efficiencies were measured (13) by comparing the integral of the corrected emission spectrum with the corresponding integral for a solution of quinine bisulfate in 1 N H₂SO₄ of matched absorbance at the excitation wavelength.
# Affinities for other cations were usually measured by titrating aqueous solutions of the indicator with metal chlorides added either as solid or from concentrated stock solutions, taking care to minimize dilution and correct for it. A convenient way to mass-produce premeasured micromole to millimole aliquots of solid NaCl or KCl was to pipet saline solutions into polypropylene micro test tubes and evaporate the water in an oven. The standard ionic background was again 100 mM tetramethylammonium chloride, usually with a few mM of tris(hydroxymethyl)-aminomethane base to hold the pH high enough (pH 8-9) to insure that protonation was negligible. This convenient titration procedure had the slight disadvantage that the ionic strength was not constant, especially when large quantities of a salt had to be added due to weak affinities. […] When constant ionic strength was desired, the chelator was made up at identical concentrations in matched solutions of NaCl, KCl, or tetramethylammonium chloride, then these stocks were mixed in the desired proportions. All measurements were made at room temperature (22°, ±2° C).
# [2] = Effective Kd for Na⁺ against a K⁺ background; type: binding
# Procedure: For comparison, Lehn's cryptand [2.2.1] (see ref. 5) is shown in the upper left hand corner. Below cryptand [2.2.1] are three generic types of crown ethers that have been prepared for use in the making some of the compounds of the present invention. To the right of the vertical dividing line are examples of some of the aromatic and heterocyclic substituents that can be attached to the nitrogens of the crown ethers. […] The lowest curve ([Na⁺] = 0) was obtained with 5 µM SBFI in 130 mM KCl, 10 mM MOPS, KOH to pH 7.05, approximately 135 mM total K⁺. The highest curve ([Na⁺] = 135 mM) was analogously recorded from 5 µM SBFI in 130 mM NaCl, 10 mM MOPS, NaOH to pH 7.05. […]
# • Footnote a: For molecular structures, see Fig. 1. • Footnote b: Except where otherwise noted, these dissociation constants were measured with the chelator dissolved in 0.1 M tetramethylammonium chloride, at a pH held high enough with 1-5 mM tris(hydroxymethyl)aminomethane for protonation to be insignificant. The absorbance spectrum, or the fluorescence excitation spectrum for those compounds (2GG, 2NN, 2OO, 2PP, 3NN) with acronyms was measured as a function of the concentration of cation added as a solid or concentrated aqueous solution of the halide salt. […]
compound,measurement,setting,value
"COc1cc2cc(-c3ccc(C(=O)O)cc3C(=O)O)oc2cc1N1CCOCCOCCN(c2cc3oc(-c4ccc(C(=O)O)cc4C(=O)O)cc3cc2OC)CCOCC1 [Compound 2PP, N,N-bis-(2-(2,4-dicarboxyphenyl)-5-methoxybenzofuran-6-yl)-diaza[15]-crown-5]",Kd,[1]; listed as 2PP (SBFI),38 mM
same,Kd,[1]; listed as SBFI,~38 mM
same,Kd,"[2]; Na⁺-K⁺ mixtures, sum held constant at 135 mM, 1 mM Mg²⁺ present, pH 7.05, read-out: apparent dissociation constant for Na⁺",17 to 19 mM
same,Kd,"[2]; [Na⁺]+[K⁺] = 280 mM (cytoplasm of marine organisms), read-out: effective Kd for SBFI-Na⁺",28 mM

# Reference: EP0369733A2, “Fluorescent indicator dyes for alkali metal cations, their preparation and use” (THE REGENTS OF THE UNIVERSITY OF CALIFORNIA, priority 1988, dated 1990)
